Experimental data taken from BindingDB's records for doi:10.1124/jpet.102.036376 (University of Arkansas, 2002).

What was measured:
[1] = molecular target: T1, Muscarinic acetylcholine receptor M5 (Homo sapiens, UniProt P08912)
T1 sequence (P08912 whole entry): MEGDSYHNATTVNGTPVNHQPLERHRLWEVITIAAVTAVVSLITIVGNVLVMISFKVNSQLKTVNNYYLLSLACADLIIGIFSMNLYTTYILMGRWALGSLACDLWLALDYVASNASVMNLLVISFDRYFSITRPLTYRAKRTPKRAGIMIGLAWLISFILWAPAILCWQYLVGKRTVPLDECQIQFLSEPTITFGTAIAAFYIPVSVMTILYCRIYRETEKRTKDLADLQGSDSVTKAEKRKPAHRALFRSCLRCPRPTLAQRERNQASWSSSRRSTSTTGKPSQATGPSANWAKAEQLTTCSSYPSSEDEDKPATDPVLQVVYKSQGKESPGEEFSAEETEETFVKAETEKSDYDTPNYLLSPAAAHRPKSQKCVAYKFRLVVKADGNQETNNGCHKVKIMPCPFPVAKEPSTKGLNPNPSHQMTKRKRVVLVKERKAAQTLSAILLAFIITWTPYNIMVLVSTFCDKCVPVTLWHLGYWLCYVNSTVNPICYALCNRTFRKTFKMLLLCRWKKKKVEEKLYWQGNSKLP

[2] = molecular target: T2, Muscarinic acetylcholine receptor M4 (Homo sapiens, UniProt P08173)
T2 sequence (P08173 whole entry): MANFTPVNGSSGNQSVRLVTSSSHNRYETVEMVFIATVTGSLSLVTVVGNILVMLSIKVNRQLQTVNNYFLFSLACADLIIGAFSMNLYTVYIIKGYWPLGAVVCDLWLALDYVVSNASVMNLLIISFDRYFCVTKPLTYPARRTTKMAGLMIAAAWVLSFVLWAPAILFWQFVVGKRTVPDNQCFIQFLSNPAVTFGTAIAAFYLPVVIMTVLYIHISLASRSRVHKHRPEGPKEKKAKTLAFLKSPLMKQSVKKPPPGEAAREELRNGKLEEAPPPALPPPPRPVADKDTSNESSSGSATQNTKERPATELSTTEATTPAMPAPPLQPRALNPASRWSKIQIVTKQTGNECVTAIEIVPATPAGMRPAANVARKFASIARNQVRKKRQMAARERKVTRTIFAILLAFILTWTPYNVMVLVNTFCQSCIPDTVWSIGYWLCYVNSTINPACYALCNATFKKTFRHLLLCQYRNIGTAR

[3] = molecular target: Muscarinic acetylcholine receptor M3 (Rattus norvegicus, UniProt P08483)
Sequence of Muscarinic acetylcholine receptor M3 (P08483 whole entry): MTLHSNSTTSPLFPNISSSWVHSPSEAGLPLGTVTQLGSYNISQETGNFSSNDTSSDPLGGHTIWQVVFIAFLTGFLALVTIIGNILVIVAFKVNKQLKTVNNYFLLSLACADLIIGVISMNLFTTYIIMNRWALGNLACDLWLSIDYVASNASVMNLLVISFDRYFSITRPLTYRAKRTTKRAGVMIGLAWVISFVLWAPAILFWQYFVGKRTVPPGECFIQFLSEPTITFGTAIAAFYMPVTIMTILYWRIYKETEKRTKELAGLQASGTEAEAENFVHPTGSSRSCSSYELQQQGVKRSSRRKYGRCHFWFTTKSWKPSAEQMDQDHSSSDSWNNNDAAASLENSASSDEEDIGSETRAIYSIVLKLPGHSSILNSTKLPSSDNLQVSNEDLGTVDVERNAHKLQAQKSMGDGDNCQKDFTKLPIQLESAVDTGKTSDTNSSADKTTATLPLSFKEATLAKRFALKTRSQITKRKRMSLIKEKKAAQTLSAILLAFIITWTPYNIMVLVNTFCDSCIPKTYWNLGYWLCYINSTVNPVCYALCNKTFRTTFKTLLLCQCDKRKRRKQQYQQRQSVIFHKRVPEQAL

[4] = molecular target: T3, Muscarinic acetylcholine receptor M1 (Rattus norvegicus, UniProt P08482)
T3 sequence (P08482 whole entry): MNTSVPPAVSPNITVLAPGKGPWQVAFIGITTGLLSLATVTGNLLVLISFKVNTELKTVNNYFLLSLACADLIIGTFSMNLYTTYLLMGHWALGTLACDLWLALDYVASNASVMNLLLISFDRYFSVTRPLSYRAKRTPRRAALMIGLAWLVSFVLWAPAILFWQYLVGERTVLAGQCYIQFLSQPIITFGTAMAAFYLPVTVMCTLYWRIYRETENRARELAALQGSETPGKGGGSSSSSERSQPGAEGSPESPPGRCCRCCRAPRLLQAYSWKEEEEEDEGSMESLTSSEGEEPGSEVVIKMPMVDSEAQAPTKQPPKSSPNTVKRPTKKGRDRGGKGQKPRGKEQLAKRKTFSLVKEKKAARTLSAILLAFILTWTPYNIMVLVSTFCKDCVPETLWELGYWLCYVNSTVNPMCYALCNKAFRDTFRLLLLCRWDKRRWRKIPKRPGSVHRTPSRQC

Measured: Ki

CC(CCC(=O)NCC(=O)O)C1CCC2C3CCC4CC(O)CCC4(C)C3CCC12C (stereo unspecified) [CAS_115245]
> 10 µM: all assays above

CC(CCC(=O)NCCS(=O)(=O)O)C1CCC2C3CCC4CC(O)CCC4(C)C3CCC12C (stereo unspecified) [NSC_10595]
> 10 µM: [3] | [4]
